One test concerns C. deuterogattii R265. Nature of the test: Checkerboard titration assay. The settings on record: 30° C., 48 hours. Type of test: cell-based, Cryptococcus deuterogattii. The protocol:
(§1) Amphotericin B plus 5-flucytosine or fluconazole are combinations often used to treat cryptococcal meningitis. To investigate the synergy between eltrombopag and existing antifungal drugs or other drugs, a checkerboard titration assay was performed on Cryptococcus. Briefly, C. neoformans […] and C. deuterogattii […] cells were cultured overnight at 30° C. and then washed twice with double-distilled water. The cells were diluted to 10^3 cfu/mL with RPMI 1640 medium, and 100 μL of the cell suspension was added to each well of a 96-well polystyrene plate. […] After incubation at 30° C. for 48 hours, the growth of cells under different treatments was assessed by measuring the light absorbance at 600 nm (OD600). This assay allows the determination of fractional inhibitory concentration index (FICI): (MICcombined of drug A/MICalone of drug A)+(MICcombined of drug B/MICalone of drug B). After the checkerboard titration assay, the cells (3 μL) in the 96-well plate were transferred to drug-free YPD agar plates. After incubation at 30° C. for 48 hours, the agar plates were photographed and assessed for cell viability.

For test [1], the system named is C. neoformans H99. The test is described as follows: Checkerboard titration assay. It is filed as cell-based, Cryptococcus neoformans. Particulars: 30° C., 48 hours. The protocol: as §1
For test [2], the system named is C. neoformans H99. The test is described as follows: XTT-reduction assay of biofilm metabolic activity. It is filed as cell-based, Cryptococcus neoformans. The settings on record: at respective MICs (1 mg/L amphotericin B, 4 mg/L fluconazole), 24 hours. The protocol: Cryptococcus biofilms, which are composed of Cryptococcus cells and extracellular matrix, enhance the tolerance of Cryptococcus to antifungal agents (such as amphotericin B) and host defense mechanisms. To assess whether eltrombopag impacts biofilm formation in Cryptococcus, an XTT-reduction assay was used to measure the metabolic activity of C. neoformans cells treated with eltrombopag at 37° C. Briefly, C. neoformans […] cells were cultured in YPD medium at 30° C. overnight. The cells were washed twice with phosphate buffered saline (PBS) and resuspended in RPMI 1640 medium with or without eltrombopag at the indicated concentrations. The cell suspension (0.0005 OD600/mL) was added to a 96-well polystyrene plate and incubated at 37° C. for 24 or 48 hours. […] After incubation, the cells were washed three times with PBS and subjected to XTT reduction assay to quantify formazan formation by measuring the light absorbance at 492 nm. The experiments were performed in triplicate, and the results were presented as mean±standard deviation. Statistical significance for the data sets was determined using a two-tailed t test.
(Tetrazolium dyes change colour on reduction, which living cells bring about.)

With `C[C@@H]1[C@H](O)[C@@H](C)/C=C/C=C/C=C/C=C/C=C/C=C/C=C/[C@H](O[C@@H]2O[C@H](C)[C@@H](O)[C@H](N)[C@@H]2O)C[C@@H]2O[C@](O)(C[C@@H](O)C[C@@H](O)[C@H](O)CC[C@@H](O)C[C@@H](O)CC(=O)O[C@H]1C)C[C@H](O)[C@H]2C(=O)O` [AMB, amphotericin B], the MICalone in the test with C. deuterogattii R265 and in the test with C. neoformans H99 [1] was 1 mg/L throughout. In addition, the “MICcombined of AMB” value was 1 mg/L in the test with C. deuterogattii R265 (AMB in combination with ETP) and 0.5 mg/L in the test with C. neoformans H99 [1] (AMB in combination with ETP). The “reducing the metabolic activity of C. neoformans biofilms, compared with eltrombopag” value in the test on C. neoformans H99 [2] is given as “less effective than eltrombopag”.

For `C=CC[C@@H]1/C=C(\C)C[C@H](C)C[C@H](OC)[C@H]2O[C@@](O)(C(=O)C(=O)N3CCCC[C@H]3C(=O)O[C@H](/C(C)=C/[C@@H]3CC[C@@H](O)[C@H](OC)C3)[C@H](C)[C@@H](O)CC1=O)[C@H](C)C[C@@H]2OC` [FK506, tacrolimus], the MICalone in the test on C. deuterogattii R265 and in the test on C. neoformans H99 [1] was over 16 mg/L throughout. Also, the “MICcombined of FK506” value in the test on C. deuterogattii R265 (FK506 in combination with ETP) and in the test with C. neoformans H99 [1] (FK506 in combination with ETP) was 0.25 mg/L each time.

In the case of `OC(Cn1cncn1)(Cn1cncn1)c1ccc(F)cc1F` [FLC, fluconazole], the MICalone with C. deuterogattii R265 came out at 16 mg/L; in the test with C. neoformans H99 [1] it was 4 mg/L. The “MICcombined of FLC” value with C. deuterogattii R265 (FLC in combination with ETP) came out at 16 mg/L; in the test on C. neoformans H99 [1] (FLC in combination with ETP), 8 mg/L. Further, in the test on C. neoformans H99 [2], the “reducing the metabolic activity of C. neoformans biofilms, compared with eltrombopag” value is reported as “less effective than eltrombopag”.
